In US20150258101A1 (Proximagen Limited, priority 2014, published 2015) one finds IC50 data, which are given here for 27 compounds.

Where a name gives a salt, the structure may show the parent alone.

In general, IC50 refers to the point on the concentration scale where inhibition reaches its midpoint.

This assay deals with T1, purified recombinantly expressed human SSAO (Homo sapiens, UniProt Q16853).
T1 construct: made in house
T1 sequence (Q16853 1-763): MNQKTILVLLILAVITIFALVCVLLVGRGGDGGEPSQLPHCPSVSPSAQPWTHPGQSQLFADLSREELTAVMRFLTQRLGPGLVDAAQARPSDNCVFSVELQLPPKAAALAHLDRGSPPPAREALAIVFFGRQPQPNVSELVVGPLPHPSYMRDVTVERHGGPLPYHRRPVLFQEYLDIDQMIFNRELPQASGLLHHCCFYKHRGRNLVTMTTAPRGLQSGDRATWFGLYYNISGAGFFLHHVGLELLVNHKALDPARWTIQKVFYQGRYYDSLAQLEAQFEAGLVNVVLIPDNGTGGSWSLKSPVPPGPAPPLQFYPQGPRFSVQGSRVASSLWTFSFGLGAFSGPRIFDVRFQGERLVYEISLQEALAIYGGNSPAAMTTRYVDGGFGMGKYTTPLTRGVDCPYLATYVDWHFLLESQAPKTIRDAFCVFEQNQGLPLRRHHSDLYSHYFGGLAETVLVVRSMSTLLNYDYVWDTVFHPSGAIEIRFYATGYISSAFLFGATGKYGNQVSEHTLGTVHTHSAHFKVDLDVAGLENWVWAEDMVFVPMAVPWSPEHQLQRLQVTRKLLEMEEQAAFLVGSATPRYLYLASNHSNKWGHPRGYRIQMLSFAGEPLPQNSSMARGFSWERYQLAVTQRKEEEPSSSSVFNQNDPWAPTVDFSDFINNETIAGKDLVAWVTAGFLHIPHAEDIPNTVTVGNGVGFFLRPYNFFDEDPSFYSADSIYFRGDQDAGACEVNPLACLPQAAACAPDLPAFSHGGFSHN
Put plainly: SSAO enzyme inhibition assay (benzylamine substrate; hydrogen peroxide/HRP-coupled or 14C aldehyde detection). Format: biochemical. As to conditions: SSAO inhibitory activity, RT. The method, then:
All primary assays were performed at RT. with purified recombinantly expressed human SSAO. Enzyme was prepared essentially as described in Öhman et al. (Protein Expression and Purification 46 (2006) 321-331). In addition, secondary- and selectivity assays were performed using SSAO prepared from various tissues or purified rat recombinant SSAO. The enzyme activity was assayed with benzylamine as substrate by measuring either benzaldehyde production, using ^14C-labeled substrate, or by utilizing the production of hydrogen peroxide in a horseradish peroxidase (HRP) coupled reaction. Briefly, test compounds were dissolved in dimethyl sulfoxide (DMSO) to a concentration of 10 mM. Dose-response measurements were assayed by either creating 1:10 serial dilutions in DMSO to produce a 7 point curve or by making 1:3 serial dilutions in DMSO to produce 11 point curves.
In a horseradish peroxidase (HRP) coupled reaction, hydrogen peroxide oxidation of 10-acetyl-3,7-dihydroxyphenoxazine produced resorufin, which is a highly fluorescent compound (Zhout and Panchuk-Voloshina. Analytical Biochemistry 253 (1997) 169-174; Amplex® Red Hydrogen Peroxide/peroxidase Assay kit, Invitrogen A22188). Enzyme and compounds in 50 mM sodium phosphate, pH 7.4 were set to pre-incubate in flat-bottomed microtiter plates for approximately 15 min before initiating the reaction by addition of a mixture of HRP, benzylamine and Amplex reagent. Benzylamine concentration was fixed at a concentration corresponding to the Michaelis constant, determined using standard procedures. Fluorescence intensity was then measured at several time points during 1-2 h, exciting at 544 nm and reading the emission at 590 nm. For the human SSAO assay final concentrations of the reagents in the assay wells were: SSAO enzyme 1 ug/ml, benzylamine 100 uM, Amplex reagent 20 uM, HRP 0.1 U/mL and varying concentrations of test compound. The inhibition was measured as % decrease of the signal compared to a control without inhibitor (only diluted DMSO). The background signal from a sample containing no SSAO enzyme was subtracted from all data points. Data was fitted to a four parameter logistic model and IC50 values were calculated using the Graph Pad Prism 4 or XLfit 4 programs.
SSAO activity was assayed using 14C-labeled benzylamine and analysed by measuring radioactive benzaldehyde. In a white 96-well optiplate (Packard), 20 uL of diluted test compound was pre-incubated at room temperature with 20 uL SSAO enzyme for approximately 15 min with continuous agitation. All dilutions were made with PBS. The reaction was initiated by adding 20 uL of the benzylamine substrate solution containing [7-14C] Benzylamine hydrochloride (CFA589, GE Healthcare). The plate was incubated for 1 h as above after which the reaction was stopped by acidification (10 uL 1M aq HCl). Then 90 uL Micro Scint-E solution (Perkin-Elmer) was added to each well and the plate was continuously mixed for 15 min. Phase separation occurred instantly and activity was read in a Topcount scintillation counter (Perkin-Elmer). In the final reaction well, the human recombinant SSAO concentration was 10 ug/ml. In order to optimize sensitivity, the substrate concentration was decreased as compared to the HRP coupled assay in order to get a higher fraction of radioactive product. In the human SSAO assay, benzylamine concentration was 40 uM (0.2 uCi/mL). Data was analysed as above.
In the case of `O=c1ccc(-c2nc3ccncc3n2-c2ccc(Cl)cc2F)c[nH]1` [Example 35, 5-[3-(4-Chloro-2-fluorophenyl)-3H-imidazo[4,5-c]pyridin-2-yl]-1,2-dihydropyridin-2-one], the IC50 is 200 to 1200 nM.
The result for `Clc1ccc(-n2c(-c3ccc(Cn4ccnc4)cc3)nc3ccncc32)cc1` [Example 48, 1-({4-[3-(4-Chlorophenyl)-3H-imidazo[4,5-c]pyridin-2-yl]phenyl}methyl)-1H-imidazole] reads < 50 nM; that for `O=C(c1ccc(-c2nc3ccncc3n2-c2ccc(Cl)cc2)cn1)N1CCOCC1` [Example 6, 4-({5-[3-(4-Chlorophenyl)-3H-imidazo[4,5-c]pyridin-2-yl]pyridin-2-yl}carbonyl) morpholine], 200 to 1200 nM; that for `NC(=O)N1CCN(c2ccc(-c3nc4ccncc4n3-c3ccc(Cl)cc3)cn2)CC1` [Example 90, 4-{5-[3-(4-Chlorophenyl)-3H-imidazo[4,5-c]pyridin-2-yl]pyridin-2-yl}piperazine-1-carboxamide dihydrochloride], < 50 nM.
On to `Cn1cc(-c2cc3ccncc3n2-c2ccc(Cl)cc2)cn1` [Example 135, 4-[1-(4-Chlorophenyl)-1H-pyrrolo[2,3-c]pyridin-2-yl]-1-methyl-1H-pyrazole], for which the IC50 was < 50 nM.
As for `c1cc2nc(-c3cnc(N4CCOCC4)nc3)n(-c3ccc(C4CC4)cc3)c2cn1` [Example 96, 4-{5-[3-(4-Cyclopropylphenyl)-3H-imidazo[4,5-c]pyridin-2-yl]pyrimidin-2-yl}morpholine], the IC50 fell in the range of 50 to 200 nM.
As for `Nc1ncc(-c2nc3ccncc3n2-c2ccc(Cl)cc2)cn1` [Example 31, 5-[3-(4-Chlorophenyl)-3H-imidazo[4,5-c]pyridin-2-yl] pyrimidin-2-amine], the figure is 200 to 1200 nM.
The result for `CN(C)c1ncc(-c2cc3ccncc3n2-c2ccc(Cl)cc2)cn1` [Example 137, 5-[1-(4-Chlorophenyl)-1H-pyrrolo[2,3-c]pyridin-2-yl]-N,N-dimethylpyrimidin-2-amine; bis(trifluoroacetic acid)] reads < 50 nM; that for `CN(C)c1cc(-c2nc3ccncc3n2-c2ccc(F)cc2)ccn1` [Example 109, 4-[3-(4-Fluorophenyl)-3H-imidazo[4,5-c]pyridin-2-yl]-N,N-dimethylpyridin-2-amine], 200 to 1200 nM.
For the compound `Fc1ccc(-n2c(-c3ccc(C4CCOCC4)nn3)nc3ccncc32)cc1` [Example 15, 3-[3-(4-Fluorophenyl)-3H-imidazo[4,5-c]pyridin-2-yl]-6-(oxan-4-yl)pyridazine], the IC50 was 50 to 200 nM.
As for `Cc1cc(N)ncc1-c1cc2ccncc2n1-c1ccc(Cl)cc1` [Example 141, 5-[1-(4-Chlorophenyl)-1H-pyrrolo[2,3-c]pyridin-2-yl]-4-methylpyridin-2-amine; bis(trifluoroacetic acid)], the figure is 50 to 200 nM; as for `Clc1ccc(-n2c(-c3cnc(NC4CCOCC4)cn3)nc3ccncc32)cc1` [Example 7, 5-[3-(4-Chlorophenyl)-3H-imidazo[4,5-c]pyridin-2-yl]-N-(oxan-4-yl)pyrazin-2-amine], 50 to 200 nM.
For the compound `CS(=O)(=O)Nc1ccc(-c2nc3ccncc3n2-c2ccc(Cl)cc2)cn1` [Example 16, N-{5-[3-(4-Chlorophenyl)-3H-imidazo[4,5-c]pyridin-2-yl]pyridin-2-yl} methanesulfonamide], the IC50 was 200 to 1200 nM.
As for `Clc1ccc(-n2c(-c3cncc(Cl)c3)cc3ccncc32)cc1` [Example 150, 3-Chloro-5-[1-(4-chlorophenyl)-1H-pyrrolo[2,3-c]pyridin-2-yl]pyridine], the figure is 50 to 200 nM.
As for `Cn1cncc1-c1cc2ccncc2n1-c1ccc(Cl)cc1` [Example 136, 5-[1-(4-Chlorophenyl)-1H-pyrrolo[2,3-c]pyridin-2-yl]-1-methyl-1H-imidazole], the figure is < 50 nM; as for `Fc1cc(Cl)ccc1-n1c(-c2cnc(N3CCCC3)nc2)nc2ccncc21` [Example 83, 5-[3-(4-Chloro-2-fluorophenyl)-3H-imidazo[4,5-c]pyridin-2-yl]-2-(pyrrolidin-1-yl)pyrimidine], < 50 nM.
As for `FC(F)(F)c1ccc(-n2c(-c3ccc(N4CCOCC4)nc3)nc3ccncc32)cc1` [Example 66, 4-(5-{3-[4-(Trifluoromethyl)phenyl]-3H-imidazo[4,5-c]pyridin-2-yl}pyridin-2-yl)morpholine], the figure is 50 to 200 nM; as for `Clc1ccc(-n2c(-c3csc(N4CCNCC4)n3)nc3ccncc32)cc1` [Example 17, 1-{4-[3-(4-Chlorophenyl)-3H-imidazo[4,5-c]pyridin-2-yl]-1,3-thiazol-2-yl}piperazine dihydrochloride], 200 to 1200 nM.
For `Clc1ccc(-n2c(-c3cnc(N4CCNCC4)s3)nc3ccncc32)cc1` [Example 19, 1-{5-[3-(4-Chlorophenyl)-3H-imidazo[4,5-c]pyridin-2-yl]-1,3-thiazol-2-yl}piperazine], the IC50 lay within 50 to 200 nM.
As to `Cc1ccc(-n2c(-c3cnc(N4CCOCC4)nc3)cc3ccncc32)cc1` [Example 130, 4-{5-[1-(4-Methylphenyl)-1H-pyrrolo[2,3-c]pyridin-2-yl]pyrimidin-2-yl}morpholine], the IC50 was 50 to 200 nM.
As for `COc1nc(N2CCOCC2)ccc1-c1nc2ccncc2n1-c1ccc(F)cc1` [Example 28, 4-{5-[3-(4-Fluorophenyl)-3H-imidazo[4,5-c]pyridin-2-yl]-6-methoxypyridin-2-yl} morpholine], the figure is 50 to 200 nM; as for `CN1CCN(c2ccc(-c3nc4ccncc4n3-c3ccc(F)cc3)cn2)CC1=O` [Example 106, 4-{5-[3-(4-Fluorophenyl)-3H-imidazo[4,5-c]pyridin-2-yl]pyridin-2-yl}-1-methylpiperazin-2-one], 50 to 200 nM; as for `Cc1nc(N2CCOCC2)ncc1-c1nc2ccncc2n1-c1ccc(F)cc1` [Example 26, 4-{5-[3-(4-Fluorophenyl)-3H-imidazo[4,5-c]pyridin-2-yl]-4-methylpyrimidin-2-yl} morpholine], 50 to 200 nM.
The result for `NC(=O)N1CCN(c2ncc(-c3nc4ccncc4n3-c3ccc(Cl)cc3)o2)CC1` [Example 93, 4-{5-[3-(4-Chlorophenyl)-3H-imidazo[4,5-c]pyridin-2-yl]-1,3-oxazol-2-yl}piperazine-1-carboxamide] reads 50 to 200 nM.
With `Fc1ccc(-n2c(-c3cnc(NC4CC4)nc3)nc3ccncc32)cc1` [Example 10, N-Cyclopropyl-5-[3-(4-fluorophenyl)-3H-imidazo [4,5-c]pyridin-2-yl]pyrimidin-2-amine], the IC50 fell in the range of 50 to 200 nM.
As for `CN(C)c1ncc(-c2nc3ccncc3n2-c2ccc(Cl)cc2)cn1` [Example 72, 5-[3-(4-Chlorophenyl)-3H-imidazo[4,5-c]pyridin-2-yl]-N,N-dimethylpyrimidin-2-amine], the figure is 200 to 1200 nM; as for `Cc1cc(NC2CCOCC2)ncc1-c1nc2ccncc2n1-c1ccc(F)cc1` [Example 100, 5-[3-(4-Fluorophenyl)-3H-imidazo[4,5-c]pyridin-2-yl]-4-methyl-N-(oxan-4-yl)pyridin-2-amine], 200 to 1200 nM.
